Here are results for one compound from US4598070A, “Tripamide and cyclodextrin inclusion compound” (Eisai Co., Ltd., priority 1983, dated 1986).

In brackets after ≈: the same amount, converted by molar mass. Read-outs that look alike come from different tables or passages of the source.

This series in a line: Solubility of tripamide in water, Liquid I or Liquid II of the Japanese Pharmacopeia (37° C., 5 days, absorbancy method). Conditions: for solubility at 120 h: 37° C., 5 days, as tripamide, Experiment 2. The class given is physicochemical. As for the experimental part:
The inclusion compound prepared in accordance with the process described in Example 1 was used as a sample. This sample was prepared by the reaction of 1 mole of tripamide and 3 moles of β-cyclodextrin. For purpose of comparison, tripamide per se was used.
The sample was accurately weighed 100 mg as tripamide and mixed with water, Liquid I of the Japanese Pharmacopeia or Liquid II of the Japanese Pharmacopeia. The mixture was stirred at 37° C. in a warm bath for 5 days. Tripamide, dissolved in the solution, was measured by the absorbancy method.
That is, each of the tripamide solutions in water, Liquid I of the Japanese Pharmacopeia and Liquid II of the Japanese Pharmacopeia was filtered using a millipore filter of 1.2 μm and 1 ml each of the solutions after filtration was taken out. In the case of the solution using Liquid I of the Japanese Pharmacopeia, the solution was further diluted with Liquid I of the Japanese Pharmacopeia to make a 100 ml solution and 5 ml taken out of the resulting solution was further diluted to 50 ml with a 0.1N hydrochloric acid-methanol solution followed by measurement at 244 nm. In the case of each of the solutions in water and Liquid II of the Japanese Pharmacopeia, the solution was diluted to 100 ml with Liquid II of the Japanese Pharmacopeia followed by measurement at 233 nm. […]

`NS(=O)(=O)c1cc(C(=O)NN2C[C@@H]3[C@@H]4CC[C@@H](C4)[C@@H]3C2)ccc1Cl` [Tripamide, N-(4-A2a-endo-tricyclo[5.2.1.0^2.6. ]decan-4-yl)-4-chloro-3-sulfamoylbenzamide]: the solubility at 120 h is 0.0094 mg/mL (≈ 25.4 µM) (Water, read-out: Solubility (mg/ml), Water); 0.349 mg/mL (≈ 944 µM) (jp liquid i, pH 1.2, Liquid I of the Japanese Pharmacopeia, pH about 1.2, read-out: Solubility (mg/ml), Japanese Pharmacopeia Liquid I); 0.0144 mg/mL (≈ 38.9 µM) (jp liquid ii, pH 7.5, Liquid II of the Japanese Pharmacopeia, pH about 7.5, read-out: Solubility (mg/ml), Japanese Pharmacopeia Liquid II). Besides, the “solubility in water, Liquid I and Liquid II (in words)” value (water, Liquid I and Liquid II of the Japanese Pharmacopoeia, sample for comparison) is “low”. The “solubility in water (in words)” value (water, background statement) is “soluble in water only with extreme difficulty”.
